From patent US8470844B2, “Imidazoacridinone derivative compounds and methods for their use” (Technion Research & Development Foundation Limited, priority 2008, dated 2013)
Residue numbers refer to the chain shown, from its start.

What was measured:
A549 cells = assay: MTT cytotoxicity assay, parental A549 cells; assay type: cell-based, Human; settings: 96 hours exposure, mean of at least three experiments
Procedure: (§1) Tissue culture: Human non-small cell lung cancer A549 cells and T-cell leukemia CCRF-CEM cells were grown under monolayer conditions or up to a maximal density of 10^6 cells/ml (for CCRF-CEM cells) in RPMI-1640 medium (GIBCO) supplemented with 10% fetal calf serum, 2 mM glutamine, 100 μg/ml penicillin and 100 μg/ml streptomycin (Biological Industries, Beth-Haemek, Israel) in a humid atmosphere of 5% CO2. Drug resistant A549/K1.5 cells with ABCG2 overexpression were maintained under a continuous drug selection with 1.5 μM C-1305. Bram, E. E., et al., (2007) Biochem Pharmacol 74(1), 41-53.
(§2) Cytotoxicity and growth inhibition assays: The cytotoxic activity of the various IA antitumor agents was determined using the MTT assay. Poindessous, V., et al., (2003) Clin Cancer Res 9(7), 2817-2825.
(§3) Exponentially growing cells were seeded at 5×10^3 cells/well in 24-well plates (2 ml medium/well). Following an overnight incubation, cells were exposed to different drug concentrations for 96 hours. Cellular viability was determined by adding the tetrazolium salt MTT for 4 h at 37° C., followed by solubilization of the intracellular precipitated formazan in 1 ml DMSO and absorbance was determined by a microplate reader (ASYS Hitech GmbH, Austria). Drug concentrations required to inhibit cell growth by 50% (IC50) compared with untreated controls were determined from the curves of survival versus drug concentrations using the SlideWrite software (Advanced Graphics Software, Inc., Encinitas, Calif.). Resistance folds (RF) were calculated by dividing the IC50 value of the resistant cells by that of the parental cell line. Values presented are means of at least three independent experiments, each performed in duplicates.

A549/K1.5 cells = assay: MTT cytotoxicity assay, ABCG2-overexpressing A549/K1.5 cells; assay type: cell-based, Human
Procedure: as §1, §2, §3
Quantitative evaluation of ABCG2 interaction with various IA derivatives: The extent of ABCG2-mediated resistance was expressed using the Resistance Fold (RF) parameter representing the ratio between the IC50 values of the resistant cells and parental cells. Likewise, ABCG2-dependent differential accumulation of IAs in ABCG2-overexpressing A549/K1.5 cells was compared using the ratio of IA accumulation in the presence or absence of the potent ABCG2 inhibitor FTC. This was termed the FTC-dependent Accumulation Fold (AF) and was determined for each IA at a constant IA concentration of 10 μM.

ABCG2 (A549/K1.5 cells) = biological target: T1, ABCG2 (A549/K1.5 cells) (Homo sapiens, UniProt Q9UNQ0); assay: Fluorescence microscopy of nuclear accumulation of IAs in A549/K1.5 cells; assay type: cell-based; settings: 10 μM IA, 1 hr
T1 construct: Drug resistant A549/K1.5 cells with ABCG2 overexpression were maintained under a continuous drug selection with 1.5 μM C-1305; endogenous in cells; host or cells: A549/K1.5 (C-1305-selected subline of human non-small cell lung cancer A549)
T1 sequence (Q9UNQ0 1-655): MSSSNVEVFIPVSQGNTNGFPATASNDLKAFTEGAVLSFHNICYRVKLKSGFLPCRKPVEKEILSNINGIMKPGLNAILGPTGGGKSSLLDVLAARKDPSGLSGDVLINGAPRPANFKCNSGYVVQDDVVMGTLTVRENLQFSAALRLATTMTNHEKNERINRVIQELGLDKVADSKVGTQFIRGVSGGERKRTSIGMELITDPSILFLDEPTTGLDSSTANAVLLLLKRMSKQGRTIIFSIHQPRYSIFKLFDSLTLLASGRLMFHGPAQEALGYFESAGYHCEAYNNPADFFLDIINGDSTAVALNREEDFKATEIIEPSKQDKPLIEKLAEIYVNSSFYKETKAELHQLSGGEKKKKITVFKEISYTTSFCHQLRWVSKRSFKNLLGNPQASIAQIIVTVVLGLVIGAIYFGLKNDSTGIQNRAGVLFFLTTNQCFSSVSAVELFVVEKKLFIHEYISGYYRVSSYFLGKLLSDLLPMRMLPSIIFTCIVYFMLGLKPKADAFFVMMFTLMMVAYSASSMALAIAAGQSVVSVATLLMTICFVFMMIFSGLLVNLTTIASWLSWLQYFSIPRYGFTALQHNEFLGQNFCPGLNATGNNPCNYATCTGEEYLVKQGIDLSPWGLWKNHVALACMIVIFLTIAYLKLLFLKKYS
Procedure: In immunofluorescence microscopy of plasma membrane targeting of ABCG2 and nuclear accumulation of IAs, cells (1×10^4/well) were seeded in 24-well plates (1 ml medium/well) and incubated for 2 days, following which some wells were supplemented with 10 μM IA-containing medium±5 μM FTC and incubated for 1 h at 37° C. Cells were then washed twice with ice-cold PBS containing 0.1% BSA and blocked for 10 min at 4° C. with PBS containing 5% BSA. Cells were then washed once with ice-cold PBS containing 0.1% BSA and incubated for 30 min at 4° C. with a Phycoerythrin-conjugated, affinity-purified 5D3 mouse anti-human ABCG2 monoclonal antibody (1:100; eBioscience). Unspecific fluorescence was determined using cells that were incubated only with a secondary Phycoerythrin (PE)-conjugated goat anti-mouse IgG (1:200; Jackson Immunoresearch Labs, West Grove, Pa.). Cells were then washed twice and subjected to fluorescence microscopy using a DMIRE2 fluorescence microscope equipped with a DC300FX camera (Leica Microsystems, Wetzlar, Germany).
In order to exclude the possibility that differential subcellular accumulation of IA derivatives is the basis of the observed difference in cytotoxicity and cellular fluorescence, A549/K1.5 cells were incubated with 10 μM of selected IA derivatives from both group A and B in the presence or absence of FTC and subjected to fluorescence microscopy.

[1] = test system: untransfected HEK293 cells; assay: Flow cytometric accumulation in untransfected HEK293 cells; assay type: cell-based, Human; settings: ±5 μM FTC
Procedure: (§4) For cytotoxicity and accumulation experiments, cells were grown in drug-free medium for at least one week prior to the experiments. Human embryonic kidney cells (HEK293) and their stable transfectants overexpressing the R482, G482 and T482 ABCG2 were grown in the above RPMI-1640 medium supplemented with 2 mg/ml G-418. Bram, E. E., et al., (2006) Cancer Chemother Pharmacol 58(6), 826-834.
(§5) IA derivative and tetramethylrosamine (TMR) accumulation in parental HEK293 and their HEK293/ABCG2 R/G/T482 transfectants were carried out as described herein with the a slight amendment of using a single IA concentration of 1 μM ±FTC (5 μM) for the selected as well as 0.1 μM for TMR accumulation. Robey, R. W., et al., (2003) Br J Cancer 89(10), 1971-1978. Cellular fluorescence was determined using a FACSCalibur (BD Bioscience, San Jose, Calif. USA) flow cytometer. FL1-H excitation of IAs was at 488 nm and emission was collected at 525 nm, whereas FL2-H excitation of TMR was at […] and emission was collected at 574 nm. Flow cytometric results are presented as means±SD of 3 independent experiments.
(§6) Bram, E. E., et al., (2006) Cancer Chemother Pharmacol 58(6), 826-834.

wild type R482 ABCG2 = biological target: T2, wild type R482 ABCG2 (Homo sapiens, UniProt Q9UNQ0); assay: Flow cytometric accumulation in HEK293 transfectants, wild type R482 ABCG2; settings: HEK293 wild type R482 ABCG2, 0.1 μM TMR, ±5 μM FTC
T2 sequence (Q9UNQ0 1-655): T1 sequence (Q9UNQ0 1-655)
Procedure: as §4, §5, §6

mutant G482 ABCG2 = biological target: T3, mutant G482 ABCG2 (Homo sapiens, UniProt Q9UNQ0, R482G); assay: Flow cytometric accumulation in HEK293 transfectants, mutant G482 ABCG2; settings: HEK293 mutant G482 ABCG2, 0.1 μM TMR, ±5 μM FTC
T3 sequence (Q9UNQ0 1-655 R482G): T1 sequence (Q9UNQ0 1-655) with R482G
Procedure: as §4, §5, §6

mutant T482 ABCG2 = biological target: T4, mutant T482 ABCG2 (Homo sapiens, UniProt Q9UNQ0, R482T); assay: Flow cytometric accumulation in HEK293 transfectants, mutant T482 ABCG2; settings: HEK293 mutant T482 ABCG2, 0.1 μM TMR, ±5 μM FTC
T4 sequence (Q9UNQ0 1-655 R482T): T1 sequence (Q9UNQ0 1-655) with R482T
Procedure: as §4, §5, §6

CCN(CC)CCNc1ccc2nc(C)n3c4ccc(O)cc4c(=O)c1c23.Cl [C-1310]
IC50 (A549 cells): 0.06 ± 0.008 µM
IC50 (A549/K1.5 cells; ABCG2-overexpressing A549/K1.5 cells, 96 hours exposure, MTT): 1.22 ± 0.07 µM
RF (resistance fold) (A549/K1.5 cells; IC50 of A549/K1.5 cells divided by IC50 of parental A549 cells): 20.30
resistance of A549/K1.5 cells (in words) (A549/K1.5 cells; versus parental A549 cells): prominent resistance
intracellular accumulation (fluorescence microscopy) (ABCG2 (A549/K1.5 cells); absence of FTC): no apparent intracellular accumulation
nuclear accumulation (fluorescence microscopy) (ABCG2 (A549/K1.5 cells); presence of 5 μM FTC): marked restoration of nuclear accumulation
efflux (in words) ([1]; 1 μM IA): not from untransfected HEK293 cells

CN(C)c1ccc2c(-c3ccc(CCl)cc3)c3ccc(=[N+](C)C)cc-3oc2c1 [TMR, tetramethylrosamine]
AF (FTC inducible accumulation fold) (wild type R482 ABCG2): 1.4
AF (FTC inducible accumulation fold) (mutant G482 ABCG2): marked AF
AF (FTC inducible accumulation fold) (mutant T482 ABCG2): marked AF
AF (FTC inducible accumulation fold) ([1]; 0.1 μM TMR): 0.8 fold
